Experimental data: US8304238B2, “Cell culture medium and immobilized preparation of cell adhesion protein or peptide” (Nat'l Institute for Environmental Studies, priority 2003, dated 2012)
Blank lines part the entries; values can stand above or below the molecule they belong to. Where no end group is shown, it is not given here. [ ]: non-standard residue; d: D form. Nle = CCCC[C@H](N)C(=O)O

Legend:
[1] = tested on: alveolar type II epithelial cells (T2 cells); test: Adhesion of T2 cells to pseudomatrix adsorbed/immobilized from DMEM and competitive inhibition by free peptides; type: cell-based; settings: for Competitive inhibition of cell adhesion to pseudomatrix by free cell adhesion peptide: pseudomatrix 1-10 μg/ml in DMEM
Method: 200 mg each of hydrophobic binding-adsorptive polymer, MBAC, MAST or MMAC were dispersed into water, and 1 N NaOH solution was added little by little to dissolve them completely. 50 mg of WSC (1-ethyl-3-(3-dimethylamino propyl)carbodiimide, hydrochloride) was added to the resulting solution, and the reaction was conducted for 2 hours. Subsequently, 20 mg of peptide was added, and the reaction was continued with stirring for 2 hours at room temperature. After the reaction was finished, the reactant was subjected to dialysis with water to remove alkaline and low molecules, and then freeze-dried to prepare a pseudomatrix of interest.
(§1) Each pseudomatrix prepared in Example 13 to which cell adhesion peptide was bound (MBAC-peptide) was diluted in DMEM medium to the concentration of 1-10 μg/ml, and the resultant solution was poured into a 96-well by 100 μl each, and left still overnight in a CO2 incubator to be adsorbed and immobilized on the wells. Non-adsorbed MBAC-peptides were removed by rinsing well with DMEM medium. Next, T2 cells suspended at the concentration of 6×10^5 cells/ml were seeded in the serum-free DMEM by 100 μl each. After 1-day serum-free culture, T2 cells were fixed with 100 μl of methanol for 5 minutes, and stained with 50 μl of 0.4% crystal violet for 30 minutes. Excessive staining was washed with water, and the number of adhering cells was counted based on the absorbance of cytoplasm (A595).
In the same manner as in Example 14, each pseudomatrix prepared in Example 13 to which cell adhesion peptide was bound (MAST-peptide) was adsorbed and immobilized on a 96-well, and T2 cells were seeded and cultured thereon.

[2] = tested on: alveolar type II epithelial cells (T2 cells); test: Inhibition of T2 cell adhesion by anti-FIB-1 antibody after MBAC/MAST-FIB-1 in 50% ethanol is air-dried/immobilized; type: cell-based; settings: 4 μg/ml antibody 4 hours; FIB-1 concentration 0.1-0.25 μg/well
Method: In the same manner as in Example 21, MBAC/MAST-FIB-1 was diluted with 50% ethanol, poured into wells, and air-dried/immobilized. Before T2 cells were seeded, 100 μl of 4 μg/ml anti-FIB-1 polyclonal antibody was poured into the well, and incubated for 4 hours to allow the antibody to bind to the immobilized FIB-1 peptide. Controls were treated with normal IgG. T2 cells were cultured, fixed, and stained in the same manner as in Example 21.

[3] = tested on: alveolar type II epithelial cells (T2 cells); test: Inhibition of T2 cell adhesion to immobilized pseudomatrix by treatment with polyclonal antibodies for the peptides; type: cell-based; settings: for Cell adhesion ability of immobilized pseudomatrix compared with coated FN: MBAC-peptide 1-10 μg/ml in DMEM; for Inhibition of cell adhesion by treatment with antibodies for the peptides: antibodies 4-10 μg/ml, 2-4 hours; for Inhibition of cell adhesion by anti-FIB-1 antibody: immobilized at 1 μg/ml
Method: as §1, with “μg/ml,” for “μg/ml, and the resultant solution was”, “Next, 100 μl of antibodies diluted with serum-free DMEM to the concentration of 4-10 μg/ml was poured into a well, incubated for 2-4 hours to let the antibodies bind to the peptides. Normal IgG was used for control groups. Antibodies were removed after the treatment,” for “Next,”, “seeded” for “seeded in the serum-free DMEM”

[4] = tested on: alveolar type II epithelial cells (T2 cells); test: Adhesion of T2 cells to pseudomatrices dissolved in 50% ethanol and air-dried/immobilized, and competitive inhibition by free peptide; type: cell-based; settings: for Adhesion of T2 cells to pseudomatrix compared with coated FN: 50% ethanol, air-dried, 0.1-1.0 μg/well, 24 hours serum-free
Method: 50 μl of 2-20 μg/ml MAST-GRGDSP (Gly-Arg-Gly-Asp-Ser-Pro) (SEQ ID NO: 22) and MMAC-GRGDSP (SEQ ID NO: 22) dissolved in 50% ethanol were poured into wells, and air-dried/immobilized. Next, the wells to which MAST-GRGDSP (SEQ ID NO: 22) and MMAC-GRGDSP (SEQ ID NO: 22) (0.1-1.0 μg/well) were coated were rinsed with the serum-free DMEM medium. T2 cells suspended in the medium at the concentration of 6×10^4 cells/100 μl were seeded, and cultured in a CO2 incubator at 37° C. for 24 hours. Then, the cells were fixed with methanol, stained, and measured its absorbance according to the method in Example 7. A culture wherein FN was coated as a standard material was conducted simultaneously. The cell adhesion on FN was shown as a standard (100%).
In the same manner as in Example 18, MAST-GRGDSP (SEQ ID NO: 22) was dissolved in 50% ethanol, air-dried/immobilized on wells, and T2 cells were seeded/cultured thereon. Separately, just before the cells were seeded, 0.25-4.0 mg/ml of free GRGDSP (SEQ ID NO: 22) peptide was added to the cell suspension, and the culture and the subsequent measurement of absorbance were conducted in the same manner as described above. […] Further, when the applied amount of MAST-GRGDSP (SEQ ID NO: 22) was decreased, the immobilized amount of GRGDSP (SEQ ID NO: 22) decreased, and the competitive inhibition by free GRGDSP (SEQ ID NO: 22) peptide worked more effectively.
(§2) In the same manner as in Example 18, MMAC-GRGDSP (SEQ ID NO: 22) was dissolved in 50% ethanol, air-dried/immobilized on wells, and T2 cells were seeded/cultured thereon. Separately, just before the cells were seeded, 0.25-4.0 mg/ml of free GRGDSP (SEQ ID NO: 22) peptide was added to the cell suspension, and the culture and the subsequent measurement of absorbance were conducted in the same manner as described above.
as §2, with “MBAC/MAST-AG73 and -FIB-1 were” for “MMAC-GRGDSP (SEQ ID NO: 22) was”, “0.25” for “0.25-4.0”, “AG73 or FIB-1” for “GRGDSP (SEQ ID NO: 22)”

[5] = tested on: alveolar type II epithelial cells (T2 cells); test: Inhibition of T2 cell adhesion to immobilized pseudomatrices by heparin treatment; type: cell-based; settings: Nle used instead of Met
Method: Pseudomatrices prepared in Example 13 to which each cell adhesion peptide was bound (MBAC-peptide) was diluted in DMEM medium to the concentration of 1-10 μg/ml, poured into 96-wells by 100 μl each, and left still overnight in a CO2 incubator to be adsorbed and immobilized on the wells. Non-adsorbed MBAC-peptide was removed by rinsing well with DMEM medium. Next, 100 μl of DMEM in which 1 mg/ml of heparin was dissolved was poured into the wells, incubated for 2 hours to allow heparin to bind to the peptides. Control groups were treated with DMEM only. Heparin was removed after the treatment, and T2 cells suspended at the concentration of 6×10^5 cells/ml were seeded by 100 μl each. After 1-day serum-free culture, T2 cells were fixed with 100 μl of methanol for 5 minutes, and stained with 50 μl of 0.4% crystal violet for 30 minutes. Excessive staining was washed with water, and the number of adhering cells was counted based on the absorbance of cytoplasm (A595).

[6] = molecular target: integrin on T2 cells (integrin α5β1); test: reference of the ratio; T2 cell adhesion to immobilized peptides (FIGS. 8 and 9)
[7] = molecular target: syndecan present on the cell surface of T2 cells (alveolar type II epithelial cells); test: T2 cell adhesion to immobilized peptides, competitive inhibition by free peptides (FIGS. 8 and 9)
[8] = molecular target: syndecan present on the cell surface of T2 cells (alveolar type II epithelial cells); test: T2 cell adhesion to FIB-1 and AG73 co-immobilized on MMAC-coated wells, inhibition by free FIB-1 (FIG. 9)
[9] = molecular target: adhesion receptor present on the cell surface of T2 cells (not named); test: cell-based or functional assay
[10] = molecular target: adhesion receptor present on the cell surface of T2 cells (not named); test: T2 cell adhesion to FIB-1 and the peptide co-immobilized on MMAC-coated wells, inhibition by free FIB-1 (FIG. 9)
[11] = molecular target: adhesion receptor present on the cell surface of T2 cells (not named); test: T2 cell adhesion to immobilized peptides, competitive inhibition by free peptides (FIGS. 8 and 9)

Molecule: MBAC-FIB-1: pseudomatrix: MBAC polymer reacted with FIB-1 peptide (YAVTGRGDSPAS)
Competitive inhibition of cell adhesion to pseudomatrix by free cell adhesion peptide [1]: competitively inhibited | Inhibition of cell adhesion by anti-FIB-1 polyclonal antibody [2]: specifically inhibited by the antibody | Cell adhesion ability of immobilized pseudomatrix compared with coated FN [3]: the same level of cell adhesion ability as in the case where FN was coated | Inhibition of cell adhesion by treatment with antibodies for the peptides [3]: specifically inhibited | Inhibition of cell adhesion by anti-FIB-1 antibody [3]: equally inhibited | Adhesion of T2 cells to pseudomatrix compared with coated FN [4]: similarly to the case where FN was coated

Molecule: MAST-FIB-1: pseudomatrix: MAST polymer reacted with FIB-1 peptide (YAVTGRGDSPAS)
Cell adhesion ability of immobilized pseudomatrix compared with directly coated FN ([1]; 1-10 μg/ml in DMEM, 1-day serum-free culture, excluding 1 μg/ml of MBAC-AG73): the same level of cell adhesion ability as in the case where FN was directly coated | Competitive inhibition of cell adhesion to pseudomatrix by free cell adhesion peptide [1]: competitively inhibited by the free cell adhesion peptide, the degree is lower than the case of MBAC-peptide | Inhibition of cell adhesion by anti-FIB-1 polyclonal antibody [2]: specifically inhibited by the antibody | Inhibition of cell adhesion by anti-FIB-1 antibody [3]: equally inhibited | Degree of inhibition of cell adhesion by the antibody ([3]; immobilized at 2.5-10 μg/ml): low | Competitive inhibition of cell adhesion by free peptide ([4]; 50% ethanol air-dried pseudomatrix, 0.25 mg/ml free AG73 or FIB-1): worked more effectively in accordance with the decrease in the amount of immobilized FIB-1 | Adhesion of T2 cells to pseudomatrix compared with coated FN [4]: similarly to the case where FN was coated

Molecule: MBAC-A4G82X: pseudomatrix: MBAC polymer reacted with A4G82X peptide (TLFLAHGRLVF[Nle]; also: peptide reacted with MBAC polymer (pseudomatrix))
Cell adhesion ability of Nle pseudomatrix compared with immobilized Met peptide [5]: the same level of cell adhesion ability | Competitive inhibition of cell adhesion to pseudomatrix by free cell adhesion peptide [1]: inhibited by free A4G82 peptide

Molecule: polymer-AG76.8X: pseudomatrix: polymer (MBAC in FIG. 14) reacted with AG76.8X peptide (TLQLQEGRLHF[Nle]; also: peptide reacted with MBAC polymer (pseudomatrix))
Cell adhesion ability of Nle pseudomatrix compared with immobilized Met peptide [5]: the same level of cell adhesion ability

Molecule: polymer-A5G73X: pseudomatrix: polymer (MBAC in FIG. 14) reacted with A5G73X peptide (RNRLHLS[Nle]LVRP; also: peptide reacted with MBAC polymer (pseudomatrix))
Cell adhesion ability of Nle pseudomatrix compared with immobilized Met peptide [5]: the same level of cell adhesion ability

Molecule: MBAC-AG81.2X: pseudomatrix: MBAC polymer reacted with AG81.2X peptide (VKTEYIKRKAF[Nle]; also: peptide reacted with MBAC polymer (pseudomatrix))
Cell adhesion ability of Nle pseudomatrix compared with immobilized Met peptide [5]: the same level of cell adhesion ability | Cell adhesion ability of immobilized pseudomatrix compared with coated FN [3]: the same level of cell adhesion ability as in the case where FN was coated | Inhibition of cell adhesion by treatment with antibodies for the peptides [3]: specifically inhibited

Binding strength to T2 cells, Ratio to FIB-1 (fold (ratio to FIB-1)) [6]: 1
B1: FIB-1 (Tyr-Ala-Val-Thr-Gly-Arg-Gly-Asp-Ser-Pro-Ala-Ser) (peptide)
peptide: YAVTGRGDSPAS

Binding strength to T2 cells, Ratio to FIB-1 (fold (ratio to FIB-1)) [7]: 100 | mixing ratio at the transitional midpoint (peptide to FIB-1) [8]: 0.01
B2: AG73 (Arg-Lys-Arg-Leu-Gln-Val-Gln-Leu-Ser-Ile-Arg-Thr) (peptide)
peptide: RKRLQVQLSIRT

competitive inhibition of T2 cell adhesion to immobilized MAST-GRGDSP by free GRGDSP peptide [9]: 4 mg/mL | competitive inhibition of T2 cell adhesion to immobilized MMAC-GRGDSP by free GRGDSP peptide [9]: 1 to 4 mg/mL
B3: GRGDSP (Gly-Arg-Gly-Asp-Ser-Pro) (peptide)
peptide: GRGDSP

mixing ratio at the transitional midpoint (peptide to FIB-1) [10]: 1 | Binding strength to T2 cells, Ratio to FIB-1 (fold (ratio to FIB-1)) [11]: < 1
B4: A5G71 (Gly-Pro-Leu-Pro-Ser-Tyr-Leu-Gln-Phe-Val-Gly-Ile) (peptide)
peptide: GPLPSYLQFVGI
